Data: article PMC12645437, “Orthogonal IMiD-Degron Pairs Induce Selective Protein Degradation in Cells” (ACS Chemical Biology, 2025)

Tests used:
[1] = target: T1, Q147A mutant degron (ANQS) fused to EGFP (Homo sapiens, UniProt Q96SW2+Q9UKT9, Q147A); test: Ratiometric EGFP:mCherry flow cytometry degradation assay, 18 h; type: cell-based; details: Jurkat, read-out: DMax Q147A/%
T1 construct: pLVX-Sprout-IKZF3 130-189aa Q147A (ANQS); expressed in transfected cells

Jurkat cells = test: TMTpro quantitative proteomics, 16 h; details: for Scaled value (to 150), replicate 01 / Scaled value (to 150), replicate 02 / Scaled value (to 150), replicate 03: Jurkat whole cell extracts, TMTpro SPS-MS3
Experimental: Quantitative proteomics screens were carried out in untransduced Jurkat cells, embryonic stem cells (ESCs), and the multiple myeloma cell line, MM.1S. We used Jurkat cells, as our work up to this point had employed this cell line, and we selected ESCs and MM.1S cells as they express known CRBN neosubstrates, including IKZF1, IKZF3, RAB28, RNF166, SALL4, ZFP91, and ZNF827.
Proteomics - cell lysis and protein digestion
The viability of Jurkat cells was tested after 16-h treatment with corresponding chemicals
viable cells in each condition. Next, ~10^7 cells per condition were collected by centrifugation (1000 rpm), washed twice with ice-cold PBS, and lysed in RIPA buffer [50 mM HEPES pH 7.4, 150 mM NaCl, 1% sodium deoxycholate, 1% NP-40, 0.1% SDS, 10 mM sodium pyrophosphate, 10 mM β-glycerophosphate, 2.5 mM MgCl2, 200 µM TCEP, phosphatase and protease inhibitor cocktail (in-house)], to produce whole cell extracts. Whole-cell extracts were sonicated, and protein concentrations were determined using the Bradford assay. Protein extracts (100 µg) were subjected to disulfide bond reduction with 5 mM TCEP (10 min) and alkylation with 25 mM chloroacetamide (20 min). Methanol–chloroform precipitation was performed prior to protease digestion. In brief, four parts of neat methanol were added to each sample and vortexed, one part chloroform was added to the sample and vortexed, and finally, three parts water was added to the sample and vortexed. The sample was centrifuged at 8000 rpm for 5 min at room temperature and subsequently washed twice with 100% methanol. Samples were resuspended in 100 mM EPPS pH8.5 containing
0.1% RapiGest and digested at 37 °C for 6 h with trypsin at a 100:1 protein-to-protease ratio.
Samples were then subjected to TMTpro
labeling. The preparation of MM1S cell extracts was conducted using the same procedure as for
Jurkat cells. ESC cells were plated onto 6 cm dishes 24 hours prior to the chemical treatment.
Following the chemical treatment, the cells on the dish were washed with DPBS four times, after
which RIPA buffer was added directly to the dish, and the lysate was collected using a scraper.
The whole cell lysates were then processed similarly to the Jurkat cell lysates.
Proteomics - Tandem mass tag labeling
Proline-based reporter isobaric Tandem Mass Tag (TMTpro) labeling of dried peptide samples
resuspended in 100 mM EPPS pH 8.5, was carried out as follows. TMTpro reagent was added to
samples (100 µg peptide), along with acetonitrile, to achieve a final acetonitrile concentration of
approximately 30% (v/v). Following incubation at room temperature for 1 h, the labeling efficiency
of a small aliquot was tested. The reaction was then quenched with hydroxylamine to a final
concentration of 0.5% (v/v) for 15 min. The TMTpro-labeled samples were pooled together at a
1:1 ratio. The sample was vacuum centrifuged to near dryness and subjected to C18 solid-phase
The dried TMTpro-labeled sample was resuspended in 100 μL of 10 mM NH4HCO3 pH 8.0 and
fractionated using basic pH reverse phase HPLC 40. Briefly, samples were offline fractionated over
a 90 min run, into 96 fractions by high pH reverse-phase HPLC (Agilent LC1260) through an aeris
peptide xb-c18 column (Phenomenex; 250 mm × 3.6 mm) for total proteome with mobile phase A
containing 5% acetonitrile and 10 mM NH4HCO3, and mobile phase B containing 90% acetonitrile

[2] = test system: library of 8380 IKZF3 degrons fused to EGFP in Jurkat cells; test: Pooled mutant ZF degron library screen (FACS EGFPlow vs EGFP+, NGS), 18 h; type: cell-based, human; details: for Log2FC: WT degron, residues 146/147/149/150/152/153/154/155/167: FQNQGASFL;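 on logFC: Log2 fold change of EGFPlow over EGFP+ representation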
[3] = protein AADAT isoform 2 (Q8N5Z0-2)

T1 sequence (Q9UKT9 130-189 Q147A): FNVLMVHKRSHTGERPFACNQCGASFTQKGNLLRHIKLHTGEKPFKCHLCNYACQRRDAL
T1 sequence (Q96SW2 whole entry, the tested form may be a part): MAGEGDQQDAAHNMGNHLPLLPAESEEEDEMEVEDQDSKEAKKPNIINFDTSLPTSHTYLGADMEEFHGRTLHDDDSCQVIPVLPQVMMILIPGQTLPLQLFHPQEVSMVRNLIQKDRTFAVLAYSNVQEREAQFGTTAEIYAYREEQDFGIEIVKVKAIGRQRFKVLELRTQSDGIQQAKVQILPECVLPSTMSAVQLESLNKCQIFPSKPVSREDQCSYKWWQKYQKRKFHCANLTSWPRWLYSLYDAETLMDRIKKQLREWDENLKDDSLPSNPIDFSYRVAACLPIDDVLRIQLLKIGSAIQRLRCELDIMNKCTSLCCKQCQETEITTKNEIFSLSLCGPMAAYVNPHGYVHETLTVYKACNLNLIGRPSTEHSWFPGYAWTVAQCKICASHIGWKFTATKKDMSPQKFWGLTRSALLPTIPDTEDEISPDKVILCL
T1 sequence (Q16531 whole entry partner, the tested form may be a part): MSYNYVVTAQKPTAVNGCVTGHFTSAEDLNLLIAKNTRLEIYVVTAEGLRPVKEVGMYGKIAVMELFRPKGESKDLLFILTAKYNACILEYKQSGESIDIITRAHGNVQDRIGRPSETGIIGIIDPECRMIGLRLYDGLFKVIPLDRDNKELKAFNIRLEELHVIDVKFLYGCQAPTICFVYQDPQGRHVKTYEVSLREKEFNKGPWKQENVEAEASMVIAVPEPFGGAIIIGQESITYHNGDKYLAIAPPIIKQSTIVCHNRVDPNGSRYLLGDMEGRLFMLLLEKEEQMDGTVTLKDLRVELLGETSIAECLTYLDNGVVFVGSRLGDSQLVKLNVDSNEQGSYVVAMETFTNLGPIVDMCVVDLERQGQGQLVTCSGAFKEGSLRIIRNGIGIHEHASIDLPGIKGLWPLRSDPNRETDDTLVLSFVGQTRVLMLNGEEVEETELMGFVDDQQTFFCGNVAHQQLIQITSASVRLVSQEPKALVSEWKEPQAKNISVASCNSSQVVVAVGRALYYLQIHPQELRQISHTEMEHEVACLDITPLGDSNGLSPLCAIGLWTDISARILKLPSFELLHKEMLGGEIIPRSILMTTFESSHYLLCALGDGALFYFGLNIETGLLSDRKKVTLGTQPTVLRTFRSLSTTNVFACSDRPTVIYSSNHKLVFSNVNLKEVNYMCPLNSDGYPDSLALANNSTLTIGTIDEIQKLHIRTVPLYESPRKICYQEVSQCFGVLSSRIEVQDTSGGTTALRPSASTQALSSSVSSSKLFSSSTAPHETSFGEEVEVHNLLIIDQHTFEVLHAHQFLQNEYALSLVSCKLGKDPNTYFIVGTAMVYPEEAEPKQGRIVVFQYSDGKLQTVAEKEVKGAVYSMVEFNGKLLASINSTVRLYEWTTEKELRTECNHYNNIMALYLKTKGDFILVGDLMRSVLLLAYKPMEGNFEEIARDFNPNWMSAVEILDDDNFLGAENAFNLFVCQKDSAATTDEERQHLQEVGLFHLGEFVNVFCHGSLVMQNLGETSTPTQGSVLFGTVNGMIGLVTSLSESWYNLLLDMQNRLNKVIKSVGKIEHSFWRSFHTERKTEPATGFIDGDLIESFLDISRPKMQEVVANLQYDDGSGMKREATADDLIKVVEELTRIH

SMILES: O=C1CCC(N2C(=O)c3ccccc3C2=O)C(=O)N1 (stereo not shown) [Compound 1, thalidomide, reference compound]
- Dmax [1]: 82%
- Scaled value (to 150), replicate 01 (Jurkat cells; protein A2M (P01023)): 8.46
- Scaled value (to 150), replicate 02 (Jurkat cells; protein A2M (P01023)): 13.549
- Scaled value (to 150), replicate 03 (Jurkat cells; protein A2M (P01023)): 7.506
- Scaled value (to 150), replicate 01 (Jurkat cells; protein AAAS (Q9NRG9)): 10.0487
- Scaled value (to 150), replicate 02 (Jurkat cells; protein AAAS (Q9NRG9)): 9.769
- Scaled value (to 150), replicate 03 (Jurkat cells; protein AAAS (Q9NRG9)): 10.5105
- Scaled value (to 150), replicate 01 (Jurkat cells; protein AACS (Q86V21)): 10.2228
- Scaled value (to 150), replicate 02 (Jurkat cells; protein AACS (Q86V21)): 10.5542
- Scaled value (to 150), replicate 03 (Jurkat cells; protein AACS (Q86V21)): 9.811
- Scaled value (to 150), replicate 01 (Jurkat cells; [3]): 9.84
- Scaled value (to 150), replicate 02 (Jurkat cells; [3]): 10.2362
- Scaled value (to 150), replicate 03 (Jurkat cells; [3]): 11.2082
- proteins degraded (quantitative proteomics) (Jurkat cells; Jurkat, 10 μM, 16 h, 9644 quantified proteins): did not induce major protein degradation
- Log2FC ([2]; listed as Thal): 1.13
- Log2FC ([2]; listed as Thalidomide): 1.1337
- logFC ([2]; degron residues 146/147/149/150/152/153/154/155/167: FADIGAAFL): -0.52
- logFC ([2]; degron residues 146/147/149/150/152/153/154/155/167: FADIGAAFL, listed as A32): -0.5175
- logFC ([2]; degron residues 146/147/149/150/152/153/154/155/167: FADIGACFL): -1.27
- logFC ([2]; degron residues 146/147/149/150/152/153/154/155/167: FADIGACFL, listed as A32): -1.269
- logFC ([2]; degron residues 146/147/149/150/152/153/154/155/167: FADIGADFL): -2.30
- logFC ([2]; degron residues 146/147/149/150/152/153/154/155/167: FADIGADFL, listed as A32): -2.302
- logFC ([2]; degron residues 146/147/149/150/152/153/154/155/167: FADIGAEFL): -1.72
- logFC ([2]; degron residues 146/147/149/150/152/153/154/155/167: FADIGAEFL, listed as A32): -1.72
- logFC ([2]; degron residues 146/147/149/150/152/153/154/155/167: FADIGAFFL): -2.34
- logFC ([2]; degron residues 146/147/149/150/152/153/154/155/167: FADIGAGFL): -1.45
- logFC ([2]; degron residues 146/147/149/150/152/153/154/155/167: FADIGAHFL): -1.89
- logFC ([2]; degron residues 146/147/149/150/152/153/154/155/167: FADIGAIFL): -1.38
- logFC ([2]; degron residues 146/147/149/150/152/153/154/155/167: FADIGAKFL): -0.77
- logFC ([2]; degron residues 146/147/149/150/152/153/154/155/167: FADIGALFL): -1.99
- logFC ([2]; degron residues 146/147/149/150/152/153/154/155/167: FADIGAMFL): -1.81
- logFC ([2]; degron residues 146/147/149/150/152/153/154/155/167: FADIGANFL): -1.52
- logFC ([2]; degron residues 146/147/149/150/152/153/154/155/167: FADIGAPFL): 0.38
- logFC ([2]; degron residues 146/147/149/150/152/153/154/155/167: FADIGAQFL): -1.14
- logFC ([2]; degron residues 146/147/149/150/152/153/154/155/167: FADIGARFL): -0.98
- logFC ([2]; degron residues 146/147/149/150/152/153/154/155/167: FADIGASFL): -1.01
- logFC ([2]; degron residues 146/147/149/150/152/153/154/155/167: FADIGATFL): -1.50
- logFC ([2]; degron residues 146/147/149/150/152/153/154/155/167: FADIGAVFL): -1.28
- logFC ([2]; degron residues 146/147/149/150/152/153/154/155/167: FADIGAWFL): -2.70
- logFC ([2]; degron residues 146/147/149/150/152/153/154/155/167: FADIGAYFL): -1.46
- logFC ([2]; degron residues 146/147/149/150/152/153/154/155/167: FADQGAAFL): -3.14
- logFC ([2]; degron residues 146/147/149/150/152/153/154/155/167: FADQGACFL): -2.81
- logFC ([2]; degron residues 146/147/149/150/152/153/154/155/167: FADQGADFL): -2.96
- logFC ([2]; degron residues 146/147/149/150/152/153/154/155/167: FADQGAEFL): -3.47
- logFC ([2]; degron residues 146/147/149/150/152/153/154/155/167: FADQGAFFL): -3.47
- logFC ([2]; degron residues 146/147/149/150/152/153/154/155/167: FADQGAGFL): -2.45
- logFC ([2]; degron residues 146/147/149/150/152/153/154/155/167: FADQGAHFL): -3.40
- logFC ([2]; degron residues 146/147/149/150/152/153/154/155/167: FADQGAIFL): -2.61
- logFC ([2]; degron residues 146/147/149/150/152/153/154/155/167: FADQGAKFL): -2.20
- logFC ([2]; degron residues 146/147/149/150/152/153/154/155/167: FADQGALFL): -2.67
- logFC ([2]; degron residues 146/147/149/150/152/153/154/155/167: FADQGAMFL): -2.56
- logFC ([2]; degron residues 146/147/149/150/152/153/154/155/167: FADQGANFL): -3.17
